Test results as given in patent US20130344026A1, “Dimeric Smac Mimetics” (priority 2009, published 2013).
Where two headings read alike, the source gives them in different places. One block for each compound: values may come before it.

System: HCC461
Test: cell viability assay in HCC461, compound alone
Type: cell-based
[1] = HCC461, HCC461, Tables 6-9, read-out: IC50 (μM) in cell viability assay in HCC461
[2] = HCC461, HCC461, Tables 15-18, read-out: IC50 (uM) in cell viability assay in HCC461
[3] = HCC461, HCC461 cells, compound alone, read-out: IC50 (uM) in cell viability assay in HCC461

- IC50 (HCC461 cells, compound alone, read-out: IC50 (uM) in cell viability assay in HCC461): 0.031 µM
Compound: CN[C@@H](C)C(=O)N[C@H](C(=O)N1C[C@@H](NC(=O)C2CCCC(C(=O)N[C@H]3C[C@@H](C(=O)NC4CCCc5ccccc54)N(C(=O)[C@@H](NC(=O)[C@H](C)NC)C(C)(C)C)C3)C2)CC1C(=O)N[C@@H]1CCCc2ccccc21)C(C)(C)C (some centres unmarked) [Compound P3-27]

- IC50 [1]: > 30 µM
Compound: CN[C@@H](C)C(=O)N[C@H](C(=O)N1C[C@@H](NC(=O)CC[C@@H](NC(=O)[C@H](NC(=O)[C@@H](C)NC)C(C)C)C(=O)N[C@@H](C)C(C)C)C[C@H]1C(=O)N[C@@H]1CCCc2ccccc21)C(C)(C)C [Compound 158]

- IC50 [2]: 0.17 µM
Compound: CN[C@@H](C)C(=O)N[C@@H](CCCCCC[C@H](NC(=O)[C@H](C)NC)C(=O)N1CCC[C@H]1C(=O)NCc1ccc(F)cc1)C(=O)N1CCC[C@H]1C(=O)NCc1ccc(F)cc1 [Compound P2-7]

Compound: CN[C@@H](C)C(=O)N[C@H](C(=O)N[C@@H](CCCCNC(=O)c1cccc(C(=O)N[C@H]2CC(C(=O)N[C@@H]3CCc4ccccc4C3)N(C(=O)[C@@H](NC(=O)[C@H](C)NC)C(C)(C)C)C2)c1)C(=O)N[C@@H](C)C(C)C)C(C)(C)C (some centres unmarked) [Compound 161]
- IC50 (HCC461, Tables 6-9, read-out: IC50 (μM) in cell viability assay in HCC461): 2.5 µM

- IC50 [1]: 0.188 µM
Compound: CN[C@@H](C)C(=O)N[C@@H](CC#CC#CC[C@H](NC(=O)[C@H](C)NC)C(=O)N1CSC[C@H]1C(=O)N[C@@H]1CCCc2ccccc21)C(=O)N1CSC[C@H]1C(=O)N[C@@H]1CCCc2ccccc21 [Compound 88]

- IC50 [3]: 0.044 µM
Compound: CN[C@@H](C)C(=O)N[C@H](C(=O)N1C[C@@H](NC(=O)c2cc(N)cc(C(=O)N[C@H]3C[C@@H](C(=O)N[C@H](C)c4ccccc4)N(C(=O)[C@@H](NC(=O)[C@H](C)NC)C(C)(C)C)C3)c2)C[C@H]1C(=O)N[C@H](C)c1ccccc1)C(C)(C)C [Compound P3-52]

Compound: CN[C@@H](C)C(=O)N[C@H](C(=O)N1C[C@@H](n2cc(CNC(=O)c3cccc(C(=O)NCc4cn([C@H]5C[C@@H](C(=O)N[C@@H]6CCCc7ccccc76)N(C(=O)[C@@H](NC(=O)[C@H](C)NC)C(C)(C)C)C5)nn4)c3)nn2)C[C@H]1C(=O)N[C@@H]1CCCc2ccccc21)C(C)(C)C [Compound P3-7]
- IC50 [3]: 0.007 µM

- IC50 [3]: 0.053 µM
Compound: CN[C@@H](C)C(=O)N[C@H](C(=O)N1C[C@@H](NC(=O)c2cccc(C(=O)N[C@H]3C[C@@H](C(=O)N[C@H](C)c4ccccc4)N(C(=O)[C@@H](NC(=O)[C@H](C)NC)C(C)C)C3)c2)C[C@H]1C(=O)N[C@H](C)c1ccccc1)C(C)C [Compound P3-80]

- IC50 [1]: 3.6 µM
Compound: CN[C@@H](C)C(=O)NC(C(=O)N1C[C@@H](NC(=O)c2cccc(C(=O)N[C@H]3C[C@@H](C(=O)N[C@H](C)c4ccccc4)N(C(=O)[C@H](CCC(=O)OC)NC(=O)[C@H](CO)NC)C3)c2)CC1C(=O)N[C@@H]1CCCc2ccccc21)C(C)(C)C (some centres unmarked) [Compound 154]

- IC50 [2]: 0.134 µM
Compound: CN[C@@H](CO)C(=O)N[C@@H](CC#CC#CC[C@H](NC(=O)[C@H](CO)NC)C(=O)N1CCC[C@H]1C(=O)NC1c2ccccc2-c2ccccc21)C(=O)N1CCC[C@H]1C(=O)NC1c2ccccc2-c2ccccc21 [Compound P2-17]

- IC50 [2]: 0.086 µM
Compound: CN[C@@H](C)C(=O)N[C@@H](CCCCNC(=O)c1cc(O)cc(C(=O)NCCCC[C@H](NC(=O)[C@H](C)NC)C(=O)N2CCC[C@H]2C(=O)N[C@@H]2CCCc3ccccc32)c1)C(=O)N1CCC[C@H]1C(=O)N[C@@H]1CCCc2ccccc21 [Compound P2-25]

- IC50 [3]: 0.057 µM
Compound: CN[C@@H](C)C(=O)N[C@H](C(=O)N1C[C@@H](NC(=O)/C=C/C(=O)N[C@H]2C[C@@H](C(=O)N[C@H](C)c3ccccc3)N(C(=O)[C@@H](NC(=O)[C@H](C)NC)C(C)(C)C)C2)C[C@H]1C(=O)N[C@H](C)c1ccccc1)C(C)(C)C [Compound P3-75]

- IC50 [3]: 0.058 µM
Compound: CN[C@@H](C)C(=O)N[C@H](C(=O)N1C[C@@H](NC(=O)c2nn[nH]c2C(=O)N[C@H]2C[C@@H](C(=O)NC3CCCc4ccccc43)N(C(=O)[C@@H](NC(=O)[C@H](C)NC)C(C)(C)C)C2)CC1C(=O)N[C@@H]1CCCc2ccccc21)C(C)(C)C (some centres unmarked) [Compound P3-26]

- IC50 [3]: 0.02 µM
Compound: CN[C@@H](C)C(=O)N[C@H](C(=O)N1C[C@@H](NC(=O)c2ccc(C(=O)N[C@H]3C[C@@H](C(=O)NC4c5ccccc5-c5ccccc54)N(C(=O)[C@@H](NC(=O)[C@H](C)NC)C(C)(C)C)C3)cc2)C[C@H]1C(=O)NC1c2ccccc2-c2ccccc21)C(C)(C)C [Compound P3-2]
